Reference: ChEMBL document CHEMBL3885881, “DrugMatrix”

Organism: Rattus norvegicus
Assay: DrugMatrix - Regimen: Daily Repeat
Assay type: toxicity, organism-based, Sprague-Dawley
Set-up: regimen Daily Repeat, gender Male, age 6-8 weeks
Settings: in vivo, po, route oral GAVAGE, […]; for ABSOLUTE BASOPHIL / ABSOLUTE EOSINOPHIL / ABSOLUTE LYMPHOCYTE / ABSOLUTE MONOCYTE / ABSOLUTE SEGMENTED NEUTROPHIL / BASOPHIL / EOSINOPHIL / ERYTHROCYTE COUNT / HEMATOCRIT / HEMOGLOBIN / LEUKOCYTE COUNT / LYMPHOCYTE / MEAN CORPUSCULAR HEMOGLOBIN / MEAN CORPUSCULAR HEMOGLOBIN CONCENTRATION / MEAN CORPUSCULAR VOLUME / MONOCYTE / NEUTROPHIL / NUCLEATED RED BLOOD CELLS / PLATELET COUNT: tissue Blood; for ALANINE AMINOTRANSFERASE / ALBUMIN / ALKALINE PHOSPHATASE / ASPARTATE AMINOTRANSFERASE / BLOOD UREA NITROGEN / CARBON DIOXIDE / CHLORIDE / CHOLESTEROL / CREATININE / GLUCOSE / LACTATE DEHYDROGENASE / LIPASE / PHOSPHORUS / POTASSIUM / SODIUM / TOTAL BILIRUBIN / TOTAL PROTEIN / URIC ACID: tissue Plasma
[1] = 250 mg/kg, 120 h, dose level Low, time 5 day
[2] = 500 mg/kg, 72 h, dose level High, time 3 day
[3] = 500 mg/kg, 120 h, dose level High, time 5 day

CC(C)Cc1ccc(CC(=O)O)cc1 [IBUFENAC] was tested, and the “ABSOLUTE BASOPHIL” value [1] was 0 CELLS/uL, the “ABSOLUTE EOSINOPHIL” value [1] was 236.67 CELLS/uL and the “ABSOLUTE LYMPHOCYTE” value [1] was 15018.67 CELLS/uL. For the same molecule, the “ABSOLUTE MONOCYTE” value [1] was 455.33 CELLS/uL, the “ABSOLUTE SEGMENTED NEUTROPHIL” value [1] was 1489.33 CELLS/uL and the BASOPHIL [1] was 0%. The EOSINOPHIL [1] was 1.33%, the “ERYTHROCYTE COUNT” value [1] was 5.48 x10E6/uL and the HEMATOCRIT [1] was 33.63%. The HEMOGLOBIN [1] was 12.33 G/DL, the “LEUKOCYTE COUNT” value [1] was 17.2 x10E3/uL and the LYMPHOCYTE [1] was 87.33%. For the same molecule, the “MEAN CORPUSCULAR HEMOGLOBIN” value [1] was 22.5 pg, the “MEAN CORPUSCULAR HEMOGLOBIN CONCENTRATION” value [1] was 36.67 G/DL and the “MEAN CORPUSCULAR VOLUME” value [1] was 61.4 fL. For the same molecule, the MONOCYTE [1] was 2.67%, the NEUTROPHIL [1] was 8.67% and the “NUCLEATED RED BLOOD CELLS” value [1] was 0 /100WBC. The “PLATELET COUNT” value [1] was 1124.33 x10E3/uL, the “ALANINE AMINOTRANSFERASE” value [1] was 50 u/L and the ALBUMIN [1] was 4.2 G/DL. For the same molecule, the “ALKALINE PHOSPHATASE” value [1] was 391.33 u/L, the “ASPARTATE AMINOTRANSFERASE” value [1] was 81 u/L and the “BLOOD UREA NITROGEN” value [1] was 16 mg/dL. For the same molecule, the “CARBON DIOXIDE” value [1] was 28.33 mmol/L, the CHLORIDE [1] was 100.33 MEQ/L and the CHOLESTEROL [1] was 53.33 mg/dL. For the same molecule, the CREATININE [1] was 0.16 mg/dL, the GLUCOSE [1] was 167.33 mg/dL and the “LACTATE DEHYDROGENASE” value [1] was 230 u/L. The LIPASE [1] was 9 u/L, the PHOSPHORUS [1] was 12.77 mg/dL and the POTASSIUM [1] was 6.45 MEQ/L. For the same molecule, the SODIUM [1] was 142.9 MEQ/L, the “TOTAL BILIRUBIN” value [1] was 0.13 mg/dL and the “TOTAL PROTEIN” value [1] was 6 G/DL. The “URIC ACID” value [1] was 1.5 mg/dL, the “ABSOLUTE BASOPHIL” value [2] was 0 CELLS/uL and the “ABSOLUTE EOSINOPHIL” value [2] was 218.33 CELLS/uL. The “ABSOLUTE LYMPHOCYTE” value [2] was 13655.67 CELLS/uL, the “ABSOLUTE MONOCYTE” value [2] was 429.67 CELLS/uL and the “ABSOLUTE SEGMENTED NEUTROPHIL” value [2] was 2263 CELLS/uL. For the same molecule, the BASOPHIL [2] was 0%, the EOSINOPHIL [2] was 1.33% and the “ERYTHROCYTE COUNT” value [2] was 5.57 x10E6/uL. The HEMATOCRIT [2] was 35.13%, the HEMOGLOBIN [2] was 12.77 G/DL and the “LEUKOCYTE COUNT” value [2] was 16.57 x10E3/uL. The LYMPHOCYTE [2] was 82.67%, the “MEAN CORPUSCULAR HEMOGLOBIN” value [2] was 22.97 pg and the “MEAN CORPUSCULAR HEMOGLOBIN CONCENTRATION” value [2] was 36.33 G/DL. The “MEAN CORPUSCULAR VOLUME” value [2] was 63.13 fL, the MONOCYTE [2] was 2.67% and the NEUTROPHIL [2] was 13.33%. The “NUCLEATED RED BLOOD CELLS” value [2] was 0 /100WBC, the “PLATELET COUNT” value [2] was 1113.33 x10E3/uL and the “ALANINE AMINOTRANSFERASE” value [2] was 92.33 u/L. For the same molecule, the ALBUMIN [2] was 4.4 G/DL, the “ALKALINE PHOSPHATASE” value [2] was 526.33 u/L and the “ASPARTATE AMINOTRANSFERASE” value [2] was 107.33 u/L. The “BLOOD UREA NITROGEN” value [2] was 14 mg/dL, the “CARBON DIOXIDE” value [2] was 27.33 mmol/L and the CHLORIDE [2] was 103.67 MEQ/L. The CHOLESTEROL [2] was 57 mg/dL, the CREATININE [2] was 0.24 mg/dL and the GLUCOSE [2] was 142.67 mg/dL. The “LACTATE DEHYDROGENASE” value [2] was 159 u/L, the LIPASE [2] was 9.67 u/L and the PHOSPHORUS [2] was 12.2 mg/dL. For the same molecule, the POTASSIUM [2] was 7.03 MEQ/L, the SODIUM [2] was 148.07 MEQ/L and the “TOTAL BILIRUBIN” value [2] was 0.2 mg/dL. The “TOTAL PROTEIN” value [2] was 5.93 G/DL, the “URIC ACID” value [2] was 1.43 mg/dL and the “ABSOLUTE BASOPHIL” value [3] was 0 CELLS/uL. For the same molecule, the “ABSOLUTE EOSINOPHIL” value [3] was 195.6 CELLS/uL, the “ABSOLUTE LYMPHOCYTE” value [3] was 15442.4 CELLS/uL and the “ABSOLUTE MONOCYTE” value [3] was 503.4 CELLS/uL. The “ABSOLUTE SEGMENTED NEUTROPHIL” value [3] was 1838.6 CELLS/uL, the BASOPHIL [3] was 0% and the EOSINOPHIL [3] was 1%. For the same molecule, the “ERYTHROCYTE COUNT” value [3] was 5.64 x10E6/uL, the HEMATOCRIT [3] was 33.38% and the HEMOGLOBIN [3] was 12.04 G/DL. The “LEUKOCYTE COUNT” value [3] was 17.98 x10E3/uL, the LYMPHOCYTE [3] was 86.6% and the “MEAN CORPUSCULAR HEMOGLOBIN” value [3] was 21.36 pg. The “MEAN CORPUSCULAR HEMOGLOBIN CONCENTRATION” value [3] was 36.1 G/DL, the “MEAN CORPUSCULAR VOLUME” value [3] was 59.2 fL and the MONOCYTE [3] was 2.8%. The NEUTROPHIL [3] was 9.6%, the “NUCLEATED RED BLOOD CELLS” value [3] was 0 /100WBC and the “PLATELET COUNT” value [3] was 1278.6 x10E3/uL. For the same molecule, the “ALANINE AMINOTRANSFERASE” value [3] was 66 u/L, the ALBUMIN [3] was 4.06 G/DL and the “ALKALINE PHOSPHATASE” value [3] was 384.8 u/L. The “ASPARTATE AMINOTRANSFERASE” value [3] was 92.4 u/L, the “BLOOD UREA NITROGEN” value [3] was 12.8 mg/dL and the “CARBON DIOXIDE” value [3] was 25.8 mmol/L. It also gave a CHLORIDE [3] of 102.2 MEQ/L, a CHOLESTEROL [3] of 54.2 mg/dL and a CREATININE [3] of 0.16 mg/dL. For the same molecule, the GLUCOSE [3] was 152.8 mg/dL, the “LACTATE DEHYDROGENASE” value [3] was 132.4 u/L and the LIPASE [3] was 9 u/L. For the same molecule, the PHOSPHORUS [3] was 12.02 mg/dL, the POTASSIUM [3] was 6.28 MEQ/L and the SODIUM [3] was 142.86 MEQ/L. For the same molecule, the “TOTAL BILIRUBIN” value [3] was 0.14 mg/dL, the “TOTAL PROTEIN” value [3] was 5.54 G/DL and the “URIC ACID” value [3] was 1.78 mg/dL.
